In patent publication US9951089B2, “Methods of treating a fatty acid amide hydrolase-mediated condition” (INFINITY PHARMACEUTICALS, INC., priority 2010, dated 2018):

Molecular target: T1, human FAAH (Homo sapiens, UniProt O00519)
T1 construct: The clone was in an ORIGENE® pCMV6-XL5 with an insert size of ˜2.2 kb
T1 sequence (O00519 50-579 limits assumed): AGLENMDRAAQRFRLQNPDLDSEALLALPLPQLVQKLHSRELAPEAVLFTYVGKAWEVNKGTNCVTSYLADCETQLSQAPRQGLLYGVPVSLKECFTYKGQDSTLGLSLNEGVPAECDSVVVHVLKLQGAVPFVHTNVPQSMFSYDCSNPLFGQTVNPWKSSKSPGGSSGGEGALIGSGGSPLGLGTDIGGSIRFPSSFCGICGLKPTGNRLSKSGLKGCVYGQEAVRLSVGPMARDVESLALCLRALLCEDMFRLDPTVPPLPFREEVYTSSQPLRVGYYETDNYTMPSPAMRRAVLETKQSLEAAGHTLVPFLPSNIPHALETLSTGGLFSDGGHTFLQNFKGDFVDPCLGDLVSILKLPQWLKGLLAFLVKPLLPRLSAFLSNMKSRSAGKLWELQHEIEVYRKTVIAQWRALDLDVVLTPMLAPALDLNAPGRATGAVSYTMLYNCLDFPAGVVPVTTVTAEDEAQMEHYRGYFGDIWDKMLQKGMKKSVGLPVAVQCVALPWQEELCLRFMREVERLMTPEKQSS
Test: Ki determination, human FAAH (AMC-arachidonoyl amide hydrolysis, fluorescence end point)
Format: biochemical
Settings: hFAAH 108 μg/mL, substrate 20 μM, 30 min preincubation, 4 hours at room temperature
Excerpt: A human FAAH (hFAAH) cDNA clone was purchased from Origen (Catalog #TC 119221, Accession #NM_001441.1). The clone was in an ORIGENE® pCMV6-XL5 with an insert size of ˜2.2 kb. Sequencing of the clone indicated a conservative mutation of K48R. This point mutation is possibly an allelic difference, and is far from the active site and unlikely to effect the activity. This plasmid was amplified in E. coli and isolated by precipitation. […]
Frozen cell pellets were thawed on ice and resuspended in: 12.5 mM HEPES (pH 8.0), 100 mM NaCl, and 1 mM EDTA at a ratio of 25 mL per gram of cells. […] Total protein concentrations were determined using a Bio-Rad Protein Assay (Protein Assay Dye Reagent Concentrate, cat#500-0006) ref. 5. […]
The Ki of a test compound was determined for rat and human FAAH by measuring the dose dependent inhibition of AMC-Arachidonoyl amide hydrolysis as an end point read. Assays were carried out in Corning COSTAR® 384 well flat black bottom microtiter plates (Catalog #3654) and monitored in an Envision 2100 multilabel plate reader (Perkin Elmer-Wallac), with a 355 nm (40 nm band pass) excitation filter and 460 nm (25 nm bandpass) emission filter. […]

OB(O)c1ccc(-c2ccc(B(O)O)c(F)c2)cc1F [IMP-4]
Ki: 14.1 nM
